Article PMC7278776, “Multidrug Resistance Modulation Activity of Silybin Derivatives and Their Anti-Inflammatory Potential” (Antioxidants, 2020)

System: not listed separately
Assay: ORAC (oxygen radical absorption capacity) assay
Settings: fluorescein/AAPH; read-out: ORAC, concentration necessary to halve the fluorescence response (IC50)
Experimental: Antioxidant capacity of samples was determined by ORAC (oxygen radical absorption capacity) and CAA (cellular antioxidant activity) assays. ORAC assay was realized by the previously described protocol. Briefly, 50 µL of the fluorescein solution (1.6 µg/mL in phosphate-buffered saline (PBS), pH 7.4) was added by a dispenser (MultiFlo Microplate Dispenser, BioTek Instrument, Winooski, VT, USA) into each well of a 96-well plate. Subsequently, 2 µL of tested compound in the concentration range 1.25–20 µM and 23 µL of PBS were added to the wells. The plate was incubated for 15 min at 37 °C and then 25 µL of AAPH (60 mg/mL) was added to each well. AAPH was replaced with PBS for the negative control. Immediately, the fluorescence was recorded by the microplate reader (SpectraMax i3 Multi-Mode Detection Platform, Molecular Devices, San Jose, CA, USA) for 2 h in 5 min steps (excitation/emission 485/535 nm).

| Compound | IC50 |
| --- | --- |
| COc1cc([C@H]2Oc3cc(-c4oc5cc(O)cc(O)c5c(=O)c4O)ccc3O[C@@H]2CO)ccc1O [Dehydrosilybin A, 2,3-dehydrosilybin A] | 11.4 ± 1.2 µM |

System: nitric oxide (NO) production by LPS-stimulated macrophages (RAW 264.7)
Assay: NO production by LPS-stimulated macrophages (Griess)
Format: cell-based, mouse
Settings: Mus musculus, RAW264.7, 24 h, read-out: NO Production, concentration necessary to halve NO production (IC50)
Experimental: Immunomodulatory effect of tested compounds was determined as their ability to decrease nitric oxide (NO) production by LPS-stimulated macrophages (RAW 264.7, Sigma-Aldrich). Briefly, the cells were seeded into the 96-well plate at a density of 1 × 10^6 cells/mL in DMEM medium (supplemented with 2 mM L-glutamine and 1 × antibiotic antimycotic solution). After 48 h, the cells were washed with PBS. The MEM medium enriched with LPS (1 µg/mL) was added to the wells, together with the samples in the concentration range of 6.25–100 µM at a final volume of 100 µL. Indomethacin, a non-steroidal anti-inflammatory drug, was tested as a positive control in the concentration range 6.25–100 µM. After 24 h, the medium was used for the quantification of NO and inflammatory cytokines.
After 15 min, absorbance was recorded at 540 nm.

| Compound | IC50 |
| --- | --- |
| COc1cc([C@H]2Oc3cc(-c4oc5cc(O)cc(O)c5c(=O)c4O)ccc3O[C@@H]2CO)ccc1O [Dehydrosilybin A, 2,3-dehydrosilybin A] | 23.2 ± 1.4 µM |

Target: acetylcholinesterase (Homo sapiens, UniProt P22303)
Sequence (P22303 32-614, species assumed): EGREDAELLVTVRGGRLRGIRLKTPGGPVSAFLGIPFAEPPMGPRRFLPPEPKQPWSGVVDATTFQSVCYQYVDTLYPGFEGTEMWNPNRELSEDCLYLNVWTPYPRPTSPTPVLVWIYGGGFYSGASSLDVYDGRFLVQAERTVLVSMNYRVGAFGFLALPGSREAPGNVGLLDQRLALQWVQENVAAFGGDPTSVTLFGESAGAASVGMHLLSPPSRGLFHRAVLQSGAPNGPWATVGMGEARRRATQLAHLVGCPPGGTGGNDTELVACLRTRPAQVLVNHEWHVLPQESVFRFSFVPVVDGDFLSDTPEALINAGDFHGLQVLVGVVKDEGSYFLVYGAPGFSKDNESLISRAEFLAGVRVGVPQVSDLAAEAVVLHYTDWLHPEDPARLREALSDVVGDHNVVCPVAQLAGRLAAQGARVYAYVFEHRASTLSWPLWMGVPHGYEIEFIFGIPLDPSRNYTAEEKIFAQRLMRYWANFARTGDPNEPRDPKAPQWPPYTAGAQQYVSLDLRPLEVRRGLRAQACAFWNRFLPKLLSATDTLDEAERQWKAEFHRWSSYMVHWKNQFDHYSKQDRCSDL
Assay: Acetylcholinesterase activity, Ellman colorimetric method
Format: biochemical
Settings: not given
Experimental: The activity of acetylcholinesterase was measured by the Ellman colorimetric method. A stock solution of acetylcholinesterase was prepared in PBS (0.057 U/mL), 100× diluted and stored in a freezer (−20 °C). Further, the solution of DTNB (5,5′-dithio-bis-2-nitrobenzoic acid, 50 µM) and ATC ([…], 50 µM) was prepared. […] Afterwards, 10 µL of DNTB and ATC solution was added, and the reaction was launched. After the addition of reagents, the absorbance at 412 nm was recorded for 10 min every minute.

| Compound | IC50 |
| --- | --- |
| COc1cc([C@H]2Oc3cc(-c4oc5cc(O)cc(O)c5c(=O)c4O)ccc3O[C@@H]2CO)ccc1O [Dehydrosilybin A, 2,3-dehydrosilybin A] | 6.9 ± 0.6 µM |

System: ABCA1
Assay: ABCA1 mRNA expression (real-time PCR)
Format: cell-based, human
Settings: A2780/DOX, 10 µM combined with doxorubicin at IC25, 48 h
Experimental: (§1) The A2780/DOX cell line was seeded into 5 cm Petri dishes with DMEM medium at 1 × 10^5 cell/mL. After 24 h, the dishes were washed with PBS and new DMEM medium supplemented with doxorubicin (at concentration equal to IC25) and samples (10 µM) were added. After 48 h of treatment, the cells were washed with PBS and harvested using the standard trypsin-EDTA procedure. The harvested cells were centrifuged (3200× g; 10 min, 4 °C). The supernatant was discarded, and the pellets were washed with 1.5 mL of cooled PBS (5400× g; 10 min, 4 °C). The washing step was repeated with 1 mL of PBS and the cells were centrifuged again (10,000× g; 3 min, 4 °C). Afterwards, the pellets were resuspended in 1 mL of Trizol (Invitrogen, Carlsbad, CA, USA) and transferred into pre-cooled RNase-free microfuge tubes. The samples were stored at −80 °C.
(§2) A Quant-iT RiboGreen RNA Assay Kit (Invitrogen) was used to determine the RNA concentration using the Infinite M200 plate reader (Tecan, Männedor, Switzerland). The cDNA was prepared from 0.5 µg of total RNA using a RevertAid First Strand Synthesis cDNA Kit (MBI Fermentas, Vilnius, Lithuania). The amplification of the ubiquitin C gene fragment was used to determine the quality of cDNA.
(§3) The experiment was performed using the ViiA7 Real-Time polymerase chain reaction (PCR) System (Life Technologies, Camarillo, CA, USA) with a 384-well block. Before quantitative real-time PCR, the master mix was prepared by mixing 2 µL of 8 × diluted cDNA, 1.75 µL of RNase free water, 1 µL of 5 × HotFIREPol Probe quantitative PCR Mix Plus (Solis Biodyne, Tartu, Estonia) and 0.25 µL of specific 20 × TaqMan Gene Expression Assay (Life Technologies), giving 5 µL of final reaction volume. Cycling parameters were: initial hold at 50 °C for 2 min and denaturation at 95 °C for 10 min, followed by 45 cycles consisting of denaturation at 95 °C for 15 s and annealing/extension at 60 °C for 1 min. After each extension phase, the fluorescence values were acquired. Duplicate samples were used for measurement and samples with a standard deviation of duplicates > 1.0 cycle threshold (Ct) were re-analyzed. The real time PCR procedure was maintained according to MIQE (Minimum information for publication of quantitative real-time PCR experiments) guidelines. The software REST 2009 (Qiagen, Hilden, Germany) served to compare relative transcript levels of genes in the cell line.

| Compound | ABCA1 Expression Difference |
| --- | --- |
| COc1cc([C@H]2Oc3cc(-c4oc5cc(O)cc(O)c5c(=O)c4O)ccc3O[C@@H]2CO)ccc1O [Dehydrosilybin A, 2,3-dehydrosilybin A] | 4.172 |

System: ABCB2
Assay: ABCB2 mRNA expression (real-time PCR)
Format: cell-based, human
Settings: A2780/DOX, 10 µM combined with doxorubicin at IC25, 48 h
Experimental: as §1, §2, §3

| Compound | ABCB2 Expression Difference |
| --- | --- |
| COc1cc([C@H]2Oc3cc(-c4oc5cc(O)cc(O)c5c(=O)c4O)ccc3O[C@@H]2CO)ccc1O [Dehydrosilybin A, 2,3-dehydrosilybin A] | 5.557 |

System: ABCC1 (MRP1)
Assay: ABCC1 mRNA expression (real-time PCR)
Format: cell-based, human
Settings: A2780/DOX, 10 µM combined with doxorubicin at IC25, 48 h
Experimental: as §1, §2, §3

| Compound | ABCC1 Expression Difference |
| --- | --- |
| COc1cc([C@H]2Oc3cc(-c4oc5cc(O)cc(O)c5c(=O)c4O)ccc3O[C@@H]2CO)ccc1O [Dehydrosilybin A, 2,3-dehydrosilybin A] | 0.907 |

System: ABCD2
Assay: ABCD2 mRNA expression (real-time PCR)
Format: cell-based, human
Settings: A2780/DOX, 10 µM combined with doxorubicin at IC25, 48 h
Experimental: as §1, with “After 24 h, the dishes were washed with PBS and new DMEM medium supplemented with doxorubicin (at concentration equal to IC25) and samples (10 µM) were added.” left out
as §2, §3

| Compound | ABCD2 Expression Difference | ABCD2 Treated vs. Untreated |
| --- | --- | --- |
| COc1cc([C@H]2Oc3cc(-c4oc5cc(O)cc(O)c5c(=O)c4O)ccc3O[C@@H]2CO)ccc1O [Dehydrosilybin A, 2,3-dehydrosilybin A] | 0.698 | DOWN |

Same assay, conditions: A2780/DOX, 10 µM, 48 h, without doxorubicin

| Compound | ABCD2 Expression Difference |
| --- | --- |
| COc1cc([C@H]2Oc3cc(-c4oc5cc(O)cc(O)c5c(=O)c4O)ccc3O[C@@H]2CO)ccc1O [Dehydrosilybin A, 2,3-dehydrosilybin A] | 1.205 |

System: ABCG2 (BCRP)
Assay: ABCG2 mRNA expression (real-time PCR)
Format: cell-based, human
Settings: A2780/DOX, 10 µM combined with doxorubicin at IC25, 48 h
Experimental: as §1, with “After 24 h, the dishes were washed with PBS and new DMEM medium supplemented with doxorubicin (at concentration equal to IC25) and samples (10 µM) were added.” left out
as §2, §3

| Compound | ABCG2 Expression Difference |
| --- | --- |
| COc1cc([C@H]2Oc3cc(-c4oc5cc(O)cc(O)c5c(=O)c4O)ccc3O[C@@H]2CO)ccc1O [Dehydrosilybin A, 2,3-dehydrosilybin A] | 1.259 |

System: ABCG4
Assay: ABCG4 mRNA expression (real-time PCR)
Format: cell-based, human
Settings: 10 µM, 48 h, without doxorubicin
Experimental: as §1, with “After 24 h, the dishes were washed with PBS and new DMEM medium supplemented with doxorubicin (at concentration equal to IC25) and samples (10 µM) were added.” left out
as §2, §3

| Compound | downregulation of ABCG4 expression |
| --- | --- |
| COc1cc([C@H]2Oc3cc(-c4oc5cc(O)cc(O)c5c(=O)c4O)ccc3O[C@@H]2CO)ccc1O [Dehydrosilybin A, 2,3-dehydrosilybin A] | 5% |

Same assay, conditions: A2780/DOX, 10 µM combined with doxorubicin at IC25, 48 h

| Compound | ABCG4 Expression Difference |
| --- | --- |
| COc1cc([C@H]2Oc3cc(-c4oc5cc(O)cc(O)c5c(=O)c4O)ccc3O[C@@H]2CO)ccc1O [Dehydrosilybin A, 2,3-dehydrosilybin A] | 1.992 |

Same assay, conditions: A2780/DOX, 10 µM, 48 h, without doxorubicin

| Compound | ABCG4 Expression Difference | ABCG4 Treated vs. Untreated |
| --- | --- | --- |
| COc1cc([C@H]2Oc3cc(-c4oc5cc(O)cc(O)c5c(=O)c4O)ccc3O[C@@H]2CO)ccc1O [Dehydrosilybin A, 2,3-dehydrosilybin A] | 0.950 | DOWN |
